Results taken from article PMC8287028 (Frontiers in Veterinary Science, 2021).
Several values for one entry are separate records, joined by “and”; a condition that tells them apart may be missing. Equal entries are not always repeated. Where two headings read alike, the source gives them in different places.

Tests used:
[1] = cats, cited from earlier work
[2] = test system: major plasma proteins; assay: Protein binding by ex vivo ultrafiltration of spiked plasma, LC/MS; assay type: in vitro ADME, dog
Procedure: For each dog a sample of anticoagulated platelet-poor plasma collected at baseline was centrifuged (16,000 g, 5 min, 4°C) and the supernatant filtered with a […] syringe filter. […] One aliquot was centrifuged (16,000 g, 30 min, 4°C) in a molecular exclusion device (Amicon Ultra 30k filter, Millipore-Sigma) to remove the major plasma proteins. The spiked plasma and the ultrafiltrate were then analyzed for apixaban by LC/MS as above. Protein binding (%) was determined as: [Total concentration] – [[…] Unbound concentration]/Total concentration ×100.

[3] = test system: prothrombin time; conditions: in vitro, dog plasma fortified with apixaban; cited from earlier work
[4] = male beagles, 5 mg/kg 14C labeled apixaban orally; cited from earlier work
[5] = biological target: T1, bovine activated Factor X (Bos taurus, UniProt P00743); assay: Apixaban-calibrated anti-Xa activity (aXa) chromogenic bioassay on plasma of dosed dogs; assay type: in vivo
T1 construct: purchased Diagnostica Stago STA Liquid anti-Xa
T1 sequence (P00743 234-492 limits assumed): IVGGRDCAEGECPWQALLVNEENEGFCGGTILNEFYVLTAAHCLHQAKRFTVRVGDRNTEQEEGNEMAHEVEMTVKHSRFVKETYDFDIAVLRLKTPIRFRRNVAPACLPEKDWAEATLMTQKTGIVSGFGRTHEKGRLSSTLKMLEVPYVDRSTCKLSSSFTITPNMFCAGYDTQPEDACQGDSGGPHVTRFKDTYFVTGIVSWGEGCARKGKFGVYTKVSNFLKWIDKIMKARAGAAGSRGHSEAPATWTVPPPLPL
T1 sequence (P00743 41-180 limits assumed): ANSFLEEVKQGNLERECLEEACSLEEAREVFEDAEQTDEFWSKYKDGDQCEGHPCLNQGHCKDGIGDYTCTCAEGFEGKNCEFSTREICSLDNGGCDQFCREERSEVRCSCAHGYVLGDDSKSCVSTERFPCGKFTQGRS
Procedure: Coagulation assays were performed on platelet-poor, citrated plasma samples by a reference laboratory (Comparative Coagulation Laboratory, Animal Health Diagnostic Center, Ithaca, NY). […] The assay is configured with a bovine activated Factor X reagent that is added in excess to the test plasma and a chromogenic substrate of Factor Xa (STA Liquid anti-Xa, Diagnostica Stago). Residual, uninhibited Factor Xa cleaves the chromogenic substrate such that the inverse of the color change in the reaction mixture is proportional to the drug concentration in the test plasma. […] A mechanical endpoint method (STA Compact, Diagnostica Stago) and human coagulation reagents were used to measure prothrombin time (Thromboplastin LI, Helena Diagnostics, Beaumont, TX) and activated partial thromboplastin time (Dade Actin FS, Dade Behring, Newark, DE). […] Tissue-factor (1:50,000 final dilution) activated TEG was performed using standard equipment (TEG-5000, Haemonetics, Braintree, MA) as previously reported ([35]), with assays conducted per established guidelines ([36]), with a modification to eliminate the rest time to facilitate rapid sample processing. Thromboelastography assays were conducted by experienced operators using four TEG channels and tracings terminated after maximum amplitude was established. Four values were extracted from TEG tracings: reaction time (R-time), clot formation time (K-time), clot formation angle (alpha), and maximum amplitude (MA).
(§1) Pairwise comparisons between continuous variables were conducted with Wilcoxon matched-pairs signed rank test, while comparisons of more than two groups were conducted using the Friedman test with Dunn's post-hoc adjustment. Specifically, the Wilcoxon matched-pairs signed rank tests were used to compare the complete blood count and serum chemistry values between baseline and the +24 h time point. Comparisons of pharmacodynamic variables between baseline values and those at discrete sampling intervals were performed using the Friedman test with Dunn's post-hoc correction for multiple comparisons. […] Alpha was set at 0.05. Statistical analyses were performed using commercial software (Prism 9, GraphPad, La Jolla, CA).

[6] = test system: healthy mixed-breed dogs; assay: Serum biochemistry profile before and after apixaban; assay type: in vivo, dog; set-up: TP / Bicarbonate: unit not given beside the values; Calcium / Magnesium / Globulin / ALT / AST / GGT / T.bili / Sodium / BUN / Creatinine: unit not given here; conditions: for ALT / AST / Albumin / BUN / Bicarbonate / Calcium / Creatinine / GGT / Globulin / Magnesium / Sodium / T.bili / TP / Amylase / Cholesterol / Glucose / Phosphate / Potassium / TIBC: individual dogs (Dog 1-6); for Amylase: in U/L (unit assumed); for TIBC: in µg/dL (unit assumed)
Procedure: (§2) Catheters were flushed with 0.9% saline, without heparin.
as §1, with “Specifically, the Wilcoxon matched-pairs signed rank tests were used to compare the complete blood count and serum chemistry values between baseline and the +24 h time point.” left out

[7] = Pharmacokinetics after intravenous apixaban, plasma concentrations by LC/MS; assay type: in vivo, dog; conditions: dogs; for Vd: read-out: Vd (volume of distribution); for AUC: read-out: AUC (area-under-the-curve); for C0: read-out: C0 (concentration at time zero); for clearance: read-out: CL (systemic clearance) (converted); for half-life: read-out: K10 T½ (elimination half-life) (converted); for MRT: read-out: MRT (mean residence time)
Procedure: All injection durations were identical.
as §2
Analyses of plots and PK modeling were performed using compartmental methods in standard software (Phoenix, WinNonlin, Certara, St. Louis, MO). One-, 2- and 3-compartment models were fit to the plasma concentration data.

[8] = +24h after IV apixaban, in mg/dL (unit assumed)
[9] = +30h after PO apixaban, in mg/dL (unit assumed)
[10] = +30h after PO apixaban, in mmol/L (unit assumed)
[11] = both sexes, mixed-breed, dog, plasma, iv, 0.18 mg/kg, IV, mean dose 0.18 mg/kg, geometric mean
[12] = both sexes, mixed-breed, dog, plasma, iv, 0.18 mg/kg, IV, mean dose 0.18 mg/kg, mean of 6 dogs
[13] = IV, mean dose 0.18 mg/kg, individual dogs (Dog 1-6), 0.18 mg/kg

COc1ccc(-n2nc(C(N)=O)c3c2C(=O)N(c2ccc(N4CCCCC4=O)cc2)CC3)cc1 [apixaban]
time of peak aXa activity ([1]; following oral administration): 4 h | half-life ([1]; intravenously administered apixaban): 1.13 h | half-life ([1]; oral apixaban): 3.3 h | bioavailability ([1]; oral): 85.5% | fraction unbound at 500 ng/ml ([2]; both sexes, mixed-breed, platelet-poor plasma, dog plasma spiked at 500 ng/ml, ultrafiltration, mean of 6 dogs, using 7 ng/ml for the deproteinated samples): 0.014 | apixaban concentration in deproteinated samples ([2]; ultrafiltrate of dog plasma spiked at 500 ng/ml, all samples): < 7 ng/mL | concentration required to double the prothrombin time [3]: 3,079 ng/ml and 6.7 μM | excretion of the unchanged compound via gastrointestinal routes [4]: 59% | excretion of the unchanged compound via renal route [4]: 7% | mean aXa activity following intravenous injection ([5]; IV 0.18 mg/kg, at mean plasma concentration […]): 650 ng/mL | Emax (anti-Xa activity) ([5]; IV, mean dose 0.18 mg/kg, model E=(Emax x C)/(C+EC50)): 1400.5 ng/mL | mean aXa activity compared with human values ([5]; PO 0.2 mg/kg): remained below values typically observed for human moderate to high dose anticoagulant effect | aXa corresponding to the mean maximum observed plasma concentration ([5]; PO 0.2 mg/kg, 6 h post-dosing): 128 ng/mL | time of peak aXa activity ([5]; following oral administration 0.2 mg/kg): approximately 5 h | ALT ([6]; +24h after IV apixaban): 45 (2×) and 114 and 30 (2×) and 86 | AST ([6]; +24h after IV apixaban): 34 and 44 and 21 and 32 (2×) and 31 | Albumin ([6]; +24h after IV apixaban): 3.9 and 3.4 (2×) and 3.5 and 3.7 and 3.8 | BUN ([6]; +24h after IV apixaban): 16 (2×) and 19 and 30 and 20 and 21 | Bicarbonate ([6]; +24h after IV apixaban): 23 and 18 (2×) and 21 and 19 (2×) | Calcium ([6]; +24h after IV apixaban): 10.0 (2×) and 8.9 and 10.2 and 9.9 and 9.6 | Creatinine ([6]; +24h after IV apixaban): 0.8 and 0.7 (2×) and 1 (2×) and 0.9 | GGT ([6]; +24h after IV apixaban): 2 (3×) and 3 (2×) and 6 | Globulin ([6]; +24h after IV apixaban): 2.3 and 2.1 (2×) and 2.4 and 2.0 (2×) | Magnesium ([6]; +24h after IV apixaban): 1.8 (2×) and 1.6 and 1.7 (3×) | Sodium ([6]; +24h after IV apixaban): 147 and 146 (3×) and 149 and 148 | T.bili ([6]; +24h after IV apixaban): 0.0 (4×) and 0.1 (2×) | TP ([6]; +24h after IV apixaban): 6.2 and 5.5 and 5.8 (2×) and 5.6 and 5.7 | Amylase ([6]; +24h after IV apixaban): 467 and 362 and 561 and 514 and 451 and 707 | Cholesterol [6, 8]: 174 and 180 and 226 and 129 and 127 and 173 | Glucose [6, 8]: 58 and 39 and 93 and 100 and 85 and 52 | Phosphate [6, 8]: 3.9 and 3.7 and 3.3 and 4.4 and 3.6 and 4.1 | Potassium ([6]; +24h after IV apixaban, in mmol/L (unit assumed)): 4.5 and 4.2 and 4.4 and 4.3 | TIBC ([6]; +24h after IV apixaban): 391 and 352 and 385 and 345 and 313 and 356 | ALT ([6]; +30h after PO apixaban): 26 (2×) and 33 and 36 and 39 and 35 | AST ([6]; +30h after PO apixaban): 34 and 22 and 32 (2×) and 45 and 33 | Albumin ([6]; +30h after PO apixaban): 3.9 and 3.6 (2×) and 3.4 and 3.5 (2×) | BUN ([6]; +30h after PO apixaban): 19 (2×) and 12 and 10 and 18 and 24 | Calcium ([6]; +30h after PO apixaban): 10.2 (2×) and 9.7 (3×) and 9.8 | Creatinine ([6]; +30h after PO apixaban): 0.9 and 0.8 (2×) and 0.6 and 0.7 and 1 | GGT ([6]; +30h after PO apixaban): 0 (2×) and 4 (2×) and 6 (2×) | Globulin ([6]; +30h after PO apixaban): 2.1 (3×) and 2.5 and 2 and 2.3 | Magnesium ([6]; +30h after PO apixaban): 1.7 (5×) and 1.8 | Phosphate ([6]; +30h after PO apixaban): 2.8 and 3.9 (2×) and 3.7 (2×) and 3.8 | Sodium ([6]; +30h after PO apixaban): 147 (4×) and 150 and 146 | T.bili ([6]; +30h after PO apixaban): 0.1 (4×) and 0.0 (2×) | Amylase ([6]; +30h after PO apixaban): 469 and 325 and 515 and 494 and 353 and 638 | TP ([6]; +30h after PO apixaban, in g/dL (unit assumed)): 6 and 5.7 and 6.1 and 5.4 and 5.8 and 5.6 | Cholesterol [6, 9]: 198 and 192 and 244 and 106 and 162 and 186 | Glucose [6, 9]: 77 and 93 and 76 and 78 and 102 and 87 | Bicarbonate [6, 10]: 22 and 20 and 17 and 18 and 14 and 19 | Potassium [6, 10]: 4.3 and 4.5 and 3.9 and 4.9 and 4.6 and 4.8 | TIBC ([6]; +30h after PO apixaban): 391 and 331 and 372 and 288 and 336 and 329 | chloride and GGT, baseline versus 24 h post-injection ([6]; IV): statistically significant reductions | biochemical parameters ([6]; PO, baseline versus 30 h post-dose): no changes | Vd ([7]; both sexes, mixed-breed, dog, in vivo, iv, 0.18 mg/kg, IV, mean dose 0.18 mg/kg, individual dogs (Dog 1-6)): 0.163 L/kg | AUC [7, 11]: 5620 ng·h/mL | C0 [7, 11]: 1000 ng/mL | clearance [7, 11]: 0.52 mL/min/kg | half-life [7, 11]: 3.9 h | MRT [7, 11]: 5.6 h | Vd [7, 11]: 0.175 L/kg | C0 ([7]; both sexes, mixed-breed, dog, plasma, iv, 0.18 mg/kg, IV, mean dose 0.18 mg/kg, individual dogs (Dog 1-6)): 1210 ng/mL | AUC [7, 12]: 6030 ng·h/mL | C0 [7, 12]: 1010 ng/mL | clearance [7, 12]: 0.563 mL/min/kg | half-life [7, 12]: ~4.1 h | MRT [7, 12]: 6 h | Vd [7, 12]: 0.177 L/kg | concentration at 24 h ([7]; both sexes, mixed-breed, dog, plasma, IV 0.18 mg/kg, at 24 h, read-out: mean residual plasma concentration): 17 ng/mL | AUC ([7]; both sexes, mixed-breed, in vivo, IV, mean dose 0.18 mg/kg, one-compartment model, individual dogs (Dog 1-6)): 8140 ng·h/mL | AUC (area-under-the-curve) ([7]; IV, mean dose 0.18 mg/kg, one-compartment model, individual dogs (Dog 1-6), 0.18 mg/kg): 5,726.9 h*ng/ml and 4,802.6 h*ng/ml and 7,639.4 h*ng/ml and 7,330.9 h*ng/ml and 2,516.3 h*ng/ml | K10 (first order elimination rate) ([7]; IV, mean dose 0.18 mg/kg, geometric mean): 0.2 h⁻¹ | C0 (concentration at time zero) [7, 13]: 853.9 ng/ml and 1,108.0 ng/ml and 958.3 ng/ml and 1,005.0 ng/ml and 913.4 ng/ml | CL (systemic clearance) [7, 13]: 0.573 mL/min/kg and 0.683 mL/min/kg and 0.39 mL/min/kg and 0.367 mL/min/kg and 0.348 mL/min/kg and 1.01 mL/min/kg | K10 (first order elimination rate) [7, 13]: 0.2 1/h (3×) and 0.1 1/h (2×) and 0.4 1/h | K10 T½ (elimination half-life) [7, 13]: 3.3 h and 4.8 h and 5.9 h and 5.1 h and 1.9 h | K10 (first order elimination rate) ([7]; IV, mean dose 0.18 mg/kg, mean of 6 dogs): 0.2 h⁻¹
